According to patent US6821516B1, “Macrophages, process for preparing the same and their use as active substances of pharmaceutical compositions” (I.D.M. Immuno-Designed Molecules, priority 1993, dated 2004):

System: U937 tumor cells
Assay: In vitro antitumoral assay: inhibition of 3H-thymidine incorporation by U937 tumor cells, macrophage/U937 ratio 1/1
Format: cell-based, human
Conditions: mean and standard error of 8 preparations
Procedure: The “cytotoxic activity” corresponds to the one measured as the percentage of inhibition of 3-H thymidine incorporation by target tumoral cells, particularly U937 cells, and a test for this measure is hereafter given:
Differentiated macrophages were seeded into 96-well flat microtiter plates at 10^4 macrophages/well in 0.2 ml. After 2 h incubation at 37° C. in 5% CO2 humidified atmosphere, the medium was removed and replaced by IMDM+5% hu AB serum containing or not 250 U/ml of rhu IFNγ; plates were further incubated overnight. After washing, 10^4 U937 tumor cells in 0.2 ml fresh medium (IMDM+10% FCS) were added to each well. After 24 h contact, 0.1 μCi of tritiated thymidine was added to each well for a further 24 h incubation.
The cells were collected and the determination of incorporated radioactivity on the fiber glass filters was carried out by β counting. The percentage inhibition of thymidine incorporation by tumor cells could be calculated according to the formula: [formula]
The cytotoxic activity is determined with U937 cells, the ratio between macrophages and U937 being of 1/1. […]
The cells were collected and the determination of incorporated radioactivity on the fiber glass filters was carried out by β counting. The % inhibition of thymidine incorporation by tumor cells was calculated according the formula: [formula]

Substance: +GM-CSF
- cytotoxic activity +IFN-γ: % inhibition of 3H-thymidine incorporation by U937 cells (after activation with 250 U/ml IFN-γ): 76 +/− 5%
- cytotoxic activity −IFN-γ: % inhibition of 3H-thymidine incorporation by U937 cells (without IFN-γ activation (spontaneous)): 44 +/− 5%
